Measured values published in US10913742B2, “Oxadiazolones as transient receptor potential channel inhibitors” (Genentech, Inc., priority 2017, dated 2021).

Target: human TRPA1 (Homo sapiens (Human), UniProt O75762)
Experiment: hTRPA1 CHO Ca2+ FLIPR assay (block of cinnamaldehyde induced calcium influx)
Format: cell-based
Conditions: CHO cells expressing TRPA1; 75 uM cinnamaldehyde; Hill coefficient fixed to 1.5; read-out: hTRPA1 (hTRPA1 CHO Ca2+ MAX EVO (IC50))
Description: CHO cells expressing TRPA1 were plated into 384-well plates, incubated overnight at 37° C., and loaded with BD calcium indicator dye for 1 hr at 37° C. followed by 15 minutes at room temperature. The assay buffer was Hank's Balanced Salt Solution (HBSS) containing 20 mM HEPES (pH readjusted to 7.4) along with 0.02% BSA.
Following dye load and plate cool down, compounds were added to the cells using FLIPR Tetra. Plates were then incubated with compounds for 20 minutes at room temperature prior to adding agonist.
The IC50 results were fit with a standard Hill function, keeping the Hill coefficient (n) fixed to 1.5. Fixing the Hill coefficient will generally reduce variability of the IC50 determination. The IC50 results were individually examined to make sure the MIN and MAX points were set correctly prior to validation of the results.

Chain of human TRPA1 (O75762 whole entry): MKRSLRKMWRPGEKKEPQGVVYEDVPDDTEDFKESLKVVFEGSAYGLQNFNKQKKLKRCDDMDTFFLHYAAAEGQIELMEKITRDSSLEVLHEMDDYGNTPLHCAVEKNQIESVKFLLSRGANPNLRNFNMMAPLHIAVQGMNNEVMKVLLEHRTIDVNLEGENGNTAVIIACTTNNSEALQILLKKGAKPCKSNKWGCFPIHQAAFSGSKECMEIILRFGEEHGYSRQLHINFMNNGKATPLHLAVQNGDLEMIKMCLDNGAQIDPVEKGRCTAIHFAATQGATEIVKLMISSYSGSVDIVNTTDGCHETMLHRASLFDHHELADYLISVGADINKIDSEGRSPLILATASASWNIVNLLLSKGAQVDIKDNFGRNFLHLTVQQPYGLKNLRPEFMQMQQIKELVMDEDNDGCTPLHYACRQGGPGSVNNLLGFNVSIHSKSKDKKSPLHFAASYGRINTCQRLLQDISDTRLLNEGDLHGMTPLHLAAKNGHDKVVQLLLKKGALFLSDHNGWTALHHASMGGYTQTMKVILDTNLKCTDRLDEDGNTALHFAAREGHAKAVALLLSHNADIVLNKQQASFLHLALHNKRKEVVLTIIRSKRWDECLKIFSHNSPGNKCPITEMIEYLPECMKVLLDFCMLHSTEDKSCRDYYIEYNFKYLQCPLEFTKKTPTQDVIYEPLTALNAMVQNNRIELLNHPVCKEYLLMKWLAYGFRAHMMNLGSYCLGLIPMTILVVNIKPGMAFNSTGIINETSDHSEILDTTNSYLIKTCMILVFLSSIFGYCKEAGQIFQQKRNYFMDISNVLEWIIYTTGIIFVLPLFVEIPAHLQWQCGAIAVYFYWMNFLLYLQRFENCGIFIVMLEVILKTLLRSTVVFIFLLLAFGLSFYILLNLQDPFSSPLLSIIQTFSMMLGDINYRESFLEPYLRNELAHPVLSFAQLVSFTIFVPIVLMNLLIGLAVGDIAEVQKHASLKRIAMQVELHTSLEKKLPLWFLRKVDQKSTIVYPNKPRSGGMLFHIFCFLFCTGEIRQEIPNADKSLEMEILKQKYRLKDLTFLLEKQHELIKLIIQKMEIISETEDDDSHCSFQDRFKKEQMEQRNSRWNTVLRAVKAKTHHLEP

IC50	SMILES
168 nM	Cn1cc(C#N)c2ncn(Cc3nn(CCc4ccc(Cl)cc4)c(=O)o3)c(=O)c21 [compound 56, 3-((4-(4-chlorophenethyl)-5-oxo-4,5-dihydro-1,3,4-oxadiazol-2-yl)methyl)-5-methyl-4-oxo-4,5-dihydro-3H-pyrrolo[3,2-d]pyrimidine-7-carbonitrile]
11.5 nM	Cn1cnc2ncn(Cc3nn([C@H]4C[C@H](Oc5cccc(F)c5)C4)c(=O)o3)c(=O)c21 [compound 63, trans-3-[3-(3-fluorophenoxy)cyclobutyl]-5-[(7-methyl-6-oxo-purin-1-yl)methyl]-1,3,4-oxadiazol-2-one]
12.5 nM	Cc1ccnc2ncn(Cc3nn([C@H]4C[C@H](c5ccc6ncccc6c5)C4)c(=O)o3)c(=O)c12 [compound 66, 5-[(5-methyl-4-oxo-pyrido[2,3-d]pyrimidin-3-yl)methyl]-3-[3-(6-quinolyl)cyclobutyl]-1,3,4-oxadiazol-2-one]
785 nM	Cn1cnc2ncn(Cc3nn([C@H]4C[C@H](Oc5ccc(Cl)cc5)C4)c(=O)o3)c(=O)c21 [compound 69, 3-[3-(4-chlorophenoxy)cyclobutyl]-5-[(7-methyl-6-oxo-purin-1-yl)methyl]-1,3,4-oxadiazol-2-one]
17.7 nM	Cn1cnc2ncn(Cc3nn([C@H]4C[C@H](Oc5cccc(Cl)c5)C4)c(=O)o3)c(=O)c21 [compound 70, trans-3-[3-(3-chlorophenoxy)cyclobutyl]-5-[(7-methyl-6-oxo-purin-1-yl)methyl]-1,3,4-oxadiazol-2-one]
5.88 nM	O=c1c2c(Cl)ccnc2ncn1Cc1nn([C@H]2C[C@H](c3ccc(Cl)cc3)C2)c(=O)o1 [compound 73, 5-[(5-chloro-4-oxo-pyrido[2,3-d]pyrimidin-3-yl)methyl]-3-[3-(4-chlorophenyl)cyclobutyl]-1,3,4-oxadiazol-2-one]
77.5 nM	Cn1cnc2ncn(Cc3nn(CCCOc4cccc(F)c4)c(=O)o3)c(=O)c21 [compound 74, 3-[3-(3-fluorophenoxy)propyl]-5-[(7-methyl-6-oxo-purin-1-yl)methyl]-1,3,4-oxadiazol-2-one]
40.5 nM	Cc1ccnc2ncn(Cc3nn([C@H]4C[C@](F)(c5cccc(F)c5)C4)c(=O)o3)c(=O)c12 [compound 75, 3-[3-fluoro-3-(3-fluorophenyl)cyclobutyl]-5-[(5-methyl-4-oxo-pyrido[2,3-d]pyrimidin-3-yl)methyl]-1,3,4-oxadiazol-2-one]
21.4 nM	Cc1ccnc2ncn(Cc3nn([C@H]4C[C@](F)(c5ccc(C#N)cc5)C4)c(=O)o3)c(=O)c12 [compound 77, 4-[1-fluoro-3-[5-[(5-methyl-4-oxo-pyrido[2,3-d]pyrimidin-3-yl)methyl]-2-oxo-1,3,4-oxadiazol-3-yl]cyclobutyl] benzonitrile]
2.58 nM	Cc1ccnc2ncn(Cc3nn([C@H]4C[C@H](c5ccc(C#N)cc5)C4)c(=O)o3)c(=O)c12 [compound 79, 4-[3-[5-[(5-methyl-4-oxo-pyrido[2,3-d]pyrimidin-3-yl)methyl]-2-oxo-1,3,4-oxadiazol-3-yl]cyclobutyl]benzonitrile]
6.34 nM	Cc1ccnc2ncn(Cc3nn(CCCOc4cccc(Cl)c4)c(=O)o3)c(=O)c12 [compound 85, 3-(3-(3-chlorophenoxy)propyl)-5-((5-methyl-4-oxopyrido[2,3-d]pyrimidin-3(4H)-yl)methyl)-1,3,4-oxadiazol-2(3H)-one]
22.6 nM	Cn1cnc2ncn(Cc3nn(CCCOc4cccc(Cl)c4)c(=O)o3)c(=O)c21 [compound 86, 1-([4-[3-(3-chlorophenoxy)propyl]-5-oxo-4,5-dihydro-1,3,4-oxadiazol-2-yl]methyl)-7-methyl-6,7-dihydro-1H-purin-6-one]
5.76 nM	Cc1ccnc2ncn(Cc3nn([C@H]4C[C@H](c5ccc(F)cc5)C4)c(=O)o3)c(=O)c12 [compound 88, 3-[3-(4-fluorophenyl)cyclobutyl]-5-[(5-methyl-4-oxo-pyrido[2,3-d]pyrimidin-3-yl)methyl]-1,3,4-oxadiazol-2-one]

The remaining lines, values behind:

SMILES	IC50
Cc1ccc(=O)n2ccn(Cc3nn([C@H]4C[C@H](c5ccc(Cl)cc5)C4)c(=O)o3)c(=O)c12 [compound 58, 2-[[4-[3-(4-chlorophenyl)cyclobutyl]-5-oxo-1,3,4-oxadiazol-2-yl]methyl]-9-methyl-pyrido[1,2-a]pyrazine-1,6-dione]	40.3 nM
Cc1cc(C#N)nc2ncn(Cc3nn([C@H]4C[C@](F)(c5ccc(F)cc5)C4)c(=O)o3)c(=O)c12 [compound 61, 3-[[4-[3-fluoro-3-(4-fluorophenyl)cyclobutyl]-5-oxo-1,3,4-oxadiazol-2-yl]methyl]-5-methyl-4-oxo-pyrido[2,3-d]pyrimidine-7-carbonitrile]	11.2 nM
Cn1cnc2ncn(Cc3nn([C@H]4C[C@H](Oc5cccc(C#N)c5)C4)c(=O)o3)c(=O)c21 [compound 62, 3-[3-[5-[(7-methyl-6-oxo-purin-1-yl)methyl]-2-oxo-1,3,4-oxadiazol-3-yl]cyclobutoxy]benzonitrile]	45.5 nM
Cn1nnc2ncn(Cc3nn([C@H]4C[C@H](c5ccc(Cl)cc5)C4)c(=O)o3)c(=O)c21 [compound 64, trans-3-[3-(4-chlorophenyl)cyclobutyl]-5-[(1-methyl-7-oxo-triazolo[4,5-d]pyrimidin-6-yl)methyl]-1,3,4-oxadiazol-2-one]	76.9 nM
O=c1c2cccc(=O)n2ccn1Cc1nn([C@H]2C[C@H](c3ccc(Cl)cc3)C2)c(=O)o1 [compound 65, trans-2-[[4-[3-(4-chlorophenyl)cyclobutyl]-5-oxo-1,3,4-oxadiazol-2-yl]methyl]pyrido[1,2-a]pyrazine-1,6-dione]	21.1 nM
Cn1cnc2ncn(Cc3nn([C@H]4C[C@H](c5ccc(C#N)cc5)C4)c(=O)o3)c(=O)c21 [compound 71, 4-[3-[5-[(7-methyl-6-oxo-purin-1-yl)methyl]-2-oxo-1,3,4-oxadiazol-3-yl]cyclobutyl]benzonitrile]	59.7 nM
Cn1c(=O)ccc2ncn(Cc3nn([C@H]4C[C@H](c5ccc(Cl)cc5)C4)c(=O)o3)c(=O)c21 [compound 83, 3-((4-((trans)-3-(4-chlorophenyl)cyclobutyl)-5-oxo-4,5-dihydro-1,3,4-oxadiazol-2-yl)methyl)-5-methylpyrido[3,2-d]pyrimidine-4,6(3H,5H)-dione]	15.2 nM
Cn1cnc2cnn(Cc3nn([C@H]4C[C@H](c5ccc(Cl)cc5)C4)c(=O)o3)c(=O)c21 [compound 89, 3-[3-(4-chlorophenyl)cyclobutyl]-5-[(3-methyl-4-oxo-imidazo[4,5-d]pyridazin-5-yl)methyl]-1,3,4-oxadiazol-2-one]	45.7 nM
O=c1c2cccnc2cnn1Cc1nn([C@H]2C[C@H](c3ccc(Cl)cc3)C2)c(=O)o1 [compound 90, 3-[3-(4-chlorophenyl)cyclobutyl]-5-[(5-oxopyrido[2,3-d]pyridazin-6-yl)methyl]-1,3,4-oxadiazol-2-one]	79.9 nM
Cc1noc2ncn(Cc3nn([C@H]4C[C@H](c5ccc(Cl)cc5)C4)c(=O)o3)c(=O)c12 [compound 91, 5-[[4-[3-(4-chlorophenyl)cyclobutyl]-5-oxo-1,3,4-oxadiazol-2-yl]methyl]-3-methyl-isoxazolo[5,4-d]pyrimidin-4-one]	36.2 nM
Cn1cnc2ncn(Cc3nn([C@@H]4CC[C@@H](c5ccc(F)cc5)C4)c(=O)o3)c(=O)c21 [compound 92, 5-[(7-methyl-6-oxo-purin-1-yl)methyl]-3-[(1R,3R)-3-(4-fluorophenyl)cyclopentyl]-1,3,4-oxadiazol-2-one]	8.26 nM
